Assay results: ChEMBL document CHEMBL1201862, “PubChem BioAssay data set” (2004)
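Tested at 5 concentrations; 48 h exposure; 96-well plates; endpoints linearly interpolated, else capped at highest concentration. Abbreviation: GI50, concentration required for 50% inhibition of growth.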 The source made the active and inactive calls. No stated cut-off is given here; in the data, active = GI50 up to about 1.1 µM and inactive = higher.

Experiments:
Assay in all cases: inhibition of tumour cell growth, NCI panel, 48 h
[1] = system: IGROV-1
[2] = system: HCT-116
[3] = system: NCI-H23
[4] = system: MDA-MB-231
[5] = system: SK-MEL-5
[6] = system: BT-549
[7] = system: UACC-257
[8] = system: A498
[9] = system: SW-620
[10] = system: T47D
[11] = system: NCI/ADR-RES
[12] = system: NCI-H226
[13] = system: UO-31
[14] = system: MDA-MB-435
[15] = system: U-251
[16] = system: SF-295
[17] = system: ACHN
[18] = system: HOP-62
[19] = system: SF-539
[20] = system: RPMI-8226

SMILES	GI50 [1]	GI50 [2]	GI50 [3]	GI50 [4]	GI50 [5]	GI50 [6]	GI50 [7]	GI50 [8]	GI50 [9]	GI50 [10]	GI50 [11]	GI50 [12]	GI50 [13]	GI50 [14]	GI50 [15]	GI50 [16]	GI50 [17]	GI50 [18]	GI50 [19]	GI50 [20]
CCOC(=O)c1cc(=O)c2cccc3c2n1CCS3	> 100 µM (inactive)	> 100 µM (inactive)	> 100 µM (inactive)	> 100 µM (inactive)	> 100 µM (inactive)	42.9 µM (inactive)	> 100 µM (inactive)	83.8 µM (inactive)	> 100 µM (inactive)	> 100 µM (inactive)	> 100 µM (inactive)	> 100 µM (inactive)	77.8 µM (inactive)	> 100 µM (inactive)	> 100 µM (inactive)	> 100 µM (inactive)	> 100 µM (inactive)	> 100 µM (inactive)	> 100 µM (inactive)	–
COCO[C@@H]1C[C@H]2C(=O)Nc3ccccc3C(=O)N2C1	33 µM (inactive)	85.3 µM (inactive)	51.4 µM (inactive)	> 100 µM (inactive)	24.1 µM (inactive)	35.3 µM (inactive)	> 100 µM (inactive)	38.5 µM (inactive)	50.7 µM (inactive)	69.2 µM (inactive)	79.1 µM (inactive)	3.91 µM (inactive)	27 µM (inactive)	53.7 µM (inactive)	45.7 µM (inactive)	30.8 µM (inactive)	50.6 µM (inactive)	39.8 µM (inactive)	38.7 µM (inactive)	–
CC1(C)CC2(C)CC1CC2NC(=O)CCN1CCOCC1 (configuration not stated)	> 100 µM (inactive)	> 100 µM (inactive)	> 100 µM (inactive)	> 100 µM (inactive)	> 100 µM (inactive)	> 100 µM (inactive)	> 100 µM (inactive)	> 100 µM (inactive)	> 100 µM (inactive)	> 100 µM (inactive)	–	> 100 µM (inactive)	> 100 µM (inactive)	> 100 µM (inactive)	> 100 µM (inactive)	> 100 µM (inactive)	> 100 µM (inactive)	> 100 µM (inactive)	> 100 µM (inactive)	–
CCN(CC)CCN(/C(=N/c1ccccc1)N1CCCCC1)c1ccccc1	2.75 µM (inactive)	0.498 µM (active)	4.38 µM (inactive)	3.89 µM (inactive)	5.08 µM (inactive)	13.7 µM (inactive)	10.6 µM (inactive)	–	6.05 µM (inactive)	2.31 µM (inactive)	–	9.23 µM (inactive)	8.07 µM (inactive)	3.91 µM (inactive)	12.7 µM (inactive)	3.62 µM (inactive)	–	8.18 µM (inactive)	18.7 µM (inactive)	2.54 µM (inactive)
CCCCCCCCCCCCCCCCOP(=O)([O-])OCC[N+](C)(C)C1CC(C)(C)N(O)C(C)(C)C1	–	> 100 µM (inactive)	> 100 µM (inactive)	> 100 µM (inactive)	> 100 µM (inactive)	> 100 µM (inactive)	> 100 µM (inactive)	> 100 µM (inactive)	> 100 µM (inactive)	> 100 µM (inactive)	> 100 µM (inactive)	> 100 µM (inactive)	> 100 µM (inactive)	> 100 µM (inactive)	> 100 µM (inactive)	> 100 µM (inactive)	> 100 µM (inactive)	> 100 µM (inactive)	> 100 µM (inactive)	–
CC1=C(/C=C/Cl)CC(Cl)C(C)(Cl)C1 (configuration not stated)	> 100 µM (inactive)	> 100 µM (inactive)	> 100 µM (inactive)	> 100 µM (inactive)	> 100 µM (inactive)	> 100 µM (inactive)	> 100 µM (inactive)	> 100 µM (inactive)	> 100 µM (inactive)	> 100 µM (inactive)	> 100 µM (inactive)	> 100 µM (inactive)	> 100 µM (inactive)	> 100 µM (inactive)	> 100 µM (inactive)	> 100 µM (inactive)	> 100 µM (inactive)	–	> 100 µM (inactive)	–
CC1=N[C@@](C)(C2CC3C=CC2C3=O)COC1=O (some centres not stated)	> 100 µM (inactive)	> 100 µM (inactive)	> 100 µM (inactive)	> 100 µM (inactive)	> 100 µM (inactive)	> 100 µM (inactive)	> 100 µM (inactive)	> 100 µM (inactive)	> 100 µM (inactive)	> 100 µM (inactive)	–	> 100 µM (inactive)	> 100 µM (inactive)	> 100 µM (inactive)	> 100 µM (inactive)	> 100 µM (inactive)	> 100 µM (inactive)	> 100 µM (inactive)	> 100 µM (inactive)	–
Cc1nnc2n1N=C(c1ccccc1)/C(=C/c1ccc(-c3ccc(Cl)cc3)o1)S2	18.9 µM (inactive)	12.2 µM (inactive)	15.9 µM (inactive)	15.1 µM (inactive)	13.6 µM (inactive)	11.4 µM (inactive)	16.6 µM (inactive)	17.3 µM (inactive)	5 µM (inactive)	5.22 µM (inactive)	–	14.3 µM (inactive)	12.8 µM (inactive)	4.61 µM (inactive)	12.1 µM (inactive)	15.9 µM (inactive)	13.5 µM (inactive)	15.3 µM (inactive)	–	5.11 µM (inactive)
CCOC(=O)c1ccc(/N=c2\oc3ccc(OC)cc3cc2-c2nc3ccccc3[nH]2)cc1	> 100 µM (inactive)	> 100 µM (inactive)	10.4 µM (inactive)	53.7 µM (inactive)	5.66 µM (inactive)	> 100 µM (inactive)	> 100 µM (inactive)	–	8.13 µM (inactive)	> 100 µM (inactive)	> 100 µM (inactive)	0.516 µM (active)	> 100 µM (inactive)	30.5 µM (inactive)	31.4 µM (inactive)	62.8 µM (inactive)	> 100 µM (inactive)	54.6 µM (inactive)	1.99 µM (inactive)	> 100 µM (inactive)
COc1ccc(C2SC(=N)Nc3c2c(C)nn3C(=O)c2ccc(Cl)cc2)cc1OC (configuration not stated)	> 10 µM (inactive)	> 10 µM (inactive)	> 10 µM (inactive)	> 10 µM (inactive)	> 10 µM (inactive)	> 10 µM (inactive)	> 10 µM (inactive)	–	> 10 µM (inactive)	> 10 µM (inactive)	> 10 µM (inactive)	> 10 µM (inactive)	–	> 10 µM (inactive)	> 10 µM (inactive)	> 10 µM (inactive)	> 10 µM (inactive)	> 10 µM (inactive)	> 10 µM (inactive)	> 10 µM (inactive)
COc1ccc(OC)c(NC(=O)c2c(Cl)c(Cl)c(Cl)c(Cl)c2-c2nc3ccccc3[nH]2)c1	89.1 µM (inactive)	> 100 µM (inactive)	> 100 µM (inactive)	–	> 100 µM (inactive)	> 100 µM (inactive)	> 100 µM (inactive)	> 100 µM (inactive)	> 100 µM (inactive)	> 100 µM (inactive)	> 100 µM (inactive)	> 100 µM (inactive)	> 100 µM (inactive)	> 100 µM (inactive)	–	> 100 µM (inactive)	> 100 µM (inactive)	> 100 µM (inactive)	> 100 µM (inactive)	45.4 µM (inactive)
CC(=O)OCC1OC(OC(C)=O)C(Nc2ncc(-c3ccc(C)cc3)s2)C(OC(C)=O)C1OC(C)=O (configuration not stated)	17.3 µM (inactive)	16.4 µM (inactive)	12 µM (inactive)	19.9 µM (inactive)	15.8 µM (inactive)	18.6 µM (inactive)	20.1 µM (inactive)	–	13.7 µM (inactive)	15.2 µM (inactive)	30.6 µM (inactive)	26.4 µM (inactive)	14.7 µM (inactive)	15.8 µM (inactive)	17 µM (inactive)	22.9 µM (inactive)	14.6 µM (inactive)	20.4 µM (inactive)	20.7 µM (inactive)	12.9 µM (inactive)
C[C@H]1O[C@@H](C(C)(C)C)OC(=O)[C@@H]1C(OC(=O)c1ccccc1)c1cccc2ccccc12 (some centres not stated)	> 100 µM (inactive)	> 100 µM (inactive)	> 100 µM (inactive)	> 100 µM (inactive)	> 100 µM (inactive)	> 100 µM (inactive)	> 100 µM (inactive)	–	> 100 µM (inactive)	64.1 µM (inactive)	56.1 µM (inactive)	8.87 µM (inactive)	> 100 µM (inactive)	> 100 µM (inactive)	> 100 µM (inactive)	> 100 µM (inactive)	> 100 µM (inactive)	> 100 µM (inactive)	> 100 µM (inactive)	> 100 µM (inactive)
C/C(=N\c1c2ccccc2nc2ccccc12)N(C)C	23.9 µM (inactive)	10.4 µM (inactive)	15.2 µM (inactive)	14.6 µM (inactive)	14.6 µM (inactive)	25.8 µM (inactive)	16.9 µM (inactive)	–	–	20.5 µM (inactive)	16.3 µM (inactive)	11.9 µM (inactive)	9.64 µM (inactive)	22.5 µM (inactive)	23 µM (inactive)	14.8 µM (inactive)	19.8 µM (inactive)	16.5 µM (inactive)	–	13.6 µM (inactive)
COc1ccc2nc3n(c2c1)C(c1c(F)cccc1Cl)SC3 (configuration not stated)	> 100 µM (inactive)	> 100 µM (inactive)	> 100 µM (inactive)	–	> 100 µM (inactive)	> 100 µM (inactive)	> 100 µM (inactive)	> 100 µM (inactive)	> 100 µM (inactive)	> 100 µM (inactive)	23.3 µM (inactive)	–	> 100 µM (inactive)	> 100 µM (inactive)	> 100 µM (inactive)	> 100 µM (inactive)	> 100 µM (inactive)	> 100 µM (inactive)	–	> 100 µM (inactive)
